Values quoted from earlier work, collected in patent US20190233345A1, “AGRICULTURAL SYSTEMS, COMPOSITIONS AND METHODS FOR INCREASING CROP YIELD” (E. I. DU PONT DE NEMOURS AND COMPANY, priority 2016, published 2019).

Columns and labels:
[1] = tested on: lepidopteran pests of corn (including Army Worm; Spodoptera frugiperda)
[2] = tested on: lepidopteran pests of soy (including Army Worm; Spodoptera frugiperda and Velvet Bean Caterpillar (Anticarsia gemmatalis))

Row | SMILES | LD-50 [1] | LD-50 [2]
1 | CNC(=O)c1cc(C#N)cc(C)c1NC(=O)c1cc(Br)nn1-c1ncccc1Cl [HGW, cyantraniliprole] | 50-60 ppb | 50-60 ppb
2 | CNC(=O)c1cc(Cl)cc(C)c1NC(=O)c1cc(Br)nn1-c1ncccc1Cl [Prototype E2Y, chlorantraniliprole] | 15-20 ppb | 15-20 ppb
